Laboratory results as given in ChEMBL document CHEMBL1909046, “DrugMatrix in vitro pharmacology data”.

Legend:
[1] = molecular target: T1, Alpha-2C adrenergic receptor (Homo sapiens, UniProt P18825); experiment: DRUGMATRIX: Adrenergic Alpha-2C radioligand binding (ligand: [3H] MK-912); format: cell membranes, Sf9, Membrane; details: sf9
T1 sequence (P18825 whole entry): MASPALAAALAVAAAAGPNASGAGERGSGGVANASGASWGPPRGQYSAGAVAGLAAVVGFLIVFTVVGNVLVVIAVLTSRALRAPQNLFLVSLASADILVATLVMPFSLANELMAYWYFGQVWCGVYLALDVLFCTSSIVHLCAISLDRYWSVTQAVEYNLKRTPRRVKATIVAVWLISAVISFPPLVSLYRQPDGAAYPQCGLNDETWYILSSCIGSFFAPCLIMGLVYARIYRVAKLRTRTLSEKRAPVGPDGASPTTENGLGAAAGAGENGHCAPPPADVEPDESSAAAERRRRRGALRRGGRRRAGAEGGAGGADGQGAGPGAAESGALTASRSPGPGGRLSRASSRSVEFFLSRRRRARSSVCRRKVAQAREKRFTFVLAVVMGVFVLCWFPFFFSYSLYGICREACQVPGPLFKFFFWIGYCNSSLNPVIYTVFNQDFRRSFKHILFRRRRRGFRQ

[2] = molecular target: Beta-2 adrenergic receptor (Homo sapiens, UniProt P07550); experiment: DRUGMATRIX: Adrenergic beta2 radioligand binding (ligand: [3H] CGP-12177); format: cell membranes, Membrane; details: cho; Not Active = under 50% inhibition at 10 µM
[3] = molecular target: 5-hydroxytryptamine receptor 6 (Homo sapiens, UniProt P50406); format: cell membranes, HeLa, Membrane; details: hela; note: in other assays of this panel Not Active means under 50% inhibition at 10 µM
[4] = molecular target: T2, C-C chemokine receptor type 4 (Homo sapiens, UniProt P51679); format: cell membranes, Chem-1, Membrane; details: chem-1; note: in other assays of this panel Not Active means under 50% inhibition at 10 µM
T2 sequence (P51679 whole entry): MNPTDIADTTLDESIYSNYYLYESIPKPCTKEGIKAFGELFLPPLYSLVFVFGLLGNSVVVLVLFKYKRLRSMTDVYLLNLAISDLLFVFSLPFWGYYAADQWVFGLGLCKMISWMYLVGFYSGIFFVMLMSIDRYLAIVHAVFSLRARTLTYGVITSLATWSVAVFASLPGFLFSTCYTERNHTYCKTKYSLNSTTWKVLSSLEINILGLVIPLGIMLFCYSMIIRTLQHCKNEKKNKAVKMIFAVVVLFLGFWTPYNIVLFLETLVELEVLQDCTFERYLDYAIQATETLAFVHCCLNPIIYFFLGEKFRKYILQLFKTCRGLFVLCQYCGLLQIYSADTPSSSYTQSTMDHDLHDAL

[5] = molecular target: T3, Cholecystokinin receptor type A (Homo sapiens, UniProt P32238); format: cell membranes, Membrane; details: 1321-n1; note: in other assays of this panel Not Active means under 50% inhibition at 10 µM
T3 sequence (P32238 whole entry): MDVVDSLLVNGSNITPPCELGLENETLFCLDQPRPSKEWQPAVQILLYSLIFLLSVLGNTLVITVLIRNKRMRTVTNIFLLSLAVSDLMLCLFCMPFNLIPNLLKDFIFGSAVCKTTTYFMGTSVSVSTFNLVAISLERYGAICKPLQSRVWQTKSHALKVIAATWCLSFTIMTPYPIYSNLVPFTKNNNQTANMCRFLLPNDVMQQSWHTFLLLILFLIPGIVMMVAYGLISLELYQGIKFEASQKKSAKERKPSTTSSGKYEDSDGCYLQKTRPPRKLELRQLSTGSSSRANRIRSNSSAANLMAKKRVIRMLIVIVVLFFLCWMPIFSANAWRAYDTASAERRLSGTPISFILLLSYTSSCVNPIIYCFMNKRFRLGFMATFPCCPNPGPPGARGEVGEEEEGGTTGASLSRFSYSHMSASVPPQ

[6] = molecular target: Platelet-activating factor receptor (Homo sapiens, UniProt P25105); format: tissue-based; note: in other assays of this panel Not Active means under 50% inhibition at 10 µM
Estrogen receptor beta = Estrogen receptor beta (Homo sapiens, UniProt Q92731); details: sf9; note: in other assays of this panel Not Active means under 50% inhibition at 10 µM
Chain of Estrogen receptor beta (Q92731 whole entry): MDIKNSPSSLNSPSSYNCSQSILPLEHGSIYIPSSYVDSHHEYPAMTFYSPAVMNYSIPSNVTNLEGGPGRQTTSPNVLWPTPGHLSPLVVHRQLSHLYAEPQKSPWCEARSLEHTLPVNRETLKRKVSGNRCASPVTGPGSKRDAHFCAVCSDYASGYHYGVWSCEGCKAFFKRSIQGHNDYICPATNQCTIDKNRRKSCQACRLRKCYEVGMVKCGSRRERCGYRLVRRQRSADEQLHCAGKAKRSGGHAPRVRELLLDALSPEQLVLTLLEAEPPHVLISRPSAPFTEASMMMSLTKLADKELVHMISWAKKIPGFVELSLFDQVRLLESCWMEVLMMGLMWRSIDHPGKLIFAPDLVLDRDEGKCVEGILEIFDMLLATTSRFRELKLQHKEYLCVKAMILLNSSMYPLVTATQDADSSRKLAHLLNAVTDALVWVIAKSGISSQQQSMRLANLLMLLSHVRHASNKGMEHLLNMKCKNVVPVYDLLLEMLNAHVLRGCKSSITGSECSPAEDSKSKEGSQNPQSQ

Chain of Beta-2 adrenergic receptor (P07550 whole entry): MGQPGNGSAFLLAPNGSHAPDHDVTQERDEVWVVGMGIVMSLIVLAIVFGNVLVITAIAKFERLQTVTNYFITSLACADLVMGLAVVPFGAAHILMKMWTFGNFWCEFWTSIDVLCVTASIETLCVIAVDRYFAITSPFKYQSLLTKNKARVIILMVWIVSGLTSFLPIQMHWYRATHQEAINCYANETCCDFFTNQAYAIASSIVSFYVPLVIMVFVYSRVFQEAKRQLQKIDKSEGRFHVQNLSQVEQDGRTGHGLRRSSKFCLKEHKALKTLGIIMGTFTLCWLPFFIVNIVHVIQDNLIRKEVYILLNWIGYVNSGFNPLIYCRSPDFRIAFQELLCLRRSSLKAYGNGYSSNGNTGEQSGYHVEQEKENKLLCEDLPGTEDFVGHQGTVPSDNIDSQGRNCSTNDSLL
Chain of Platelet-activating factor receptor (P25105 whole entry): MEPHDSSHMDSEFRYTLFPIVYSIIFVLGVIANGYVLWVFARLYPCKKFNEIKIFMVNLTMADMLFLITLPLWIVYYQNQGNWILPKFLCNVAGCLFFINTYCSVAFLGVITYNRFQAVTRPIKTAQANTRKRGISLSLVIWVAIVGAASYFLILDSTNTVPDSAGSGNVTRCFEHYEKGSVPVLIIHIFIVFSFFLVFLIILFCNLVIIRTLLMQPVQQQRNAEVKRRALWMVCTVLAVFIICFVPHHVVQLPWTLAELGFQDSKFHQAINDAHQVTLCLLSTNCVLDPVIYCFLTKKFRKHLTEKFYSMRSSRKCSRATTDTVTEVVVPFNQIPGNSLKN
Chain of 5-hydroxytryptamine receptor 6 (P50406 whole entry): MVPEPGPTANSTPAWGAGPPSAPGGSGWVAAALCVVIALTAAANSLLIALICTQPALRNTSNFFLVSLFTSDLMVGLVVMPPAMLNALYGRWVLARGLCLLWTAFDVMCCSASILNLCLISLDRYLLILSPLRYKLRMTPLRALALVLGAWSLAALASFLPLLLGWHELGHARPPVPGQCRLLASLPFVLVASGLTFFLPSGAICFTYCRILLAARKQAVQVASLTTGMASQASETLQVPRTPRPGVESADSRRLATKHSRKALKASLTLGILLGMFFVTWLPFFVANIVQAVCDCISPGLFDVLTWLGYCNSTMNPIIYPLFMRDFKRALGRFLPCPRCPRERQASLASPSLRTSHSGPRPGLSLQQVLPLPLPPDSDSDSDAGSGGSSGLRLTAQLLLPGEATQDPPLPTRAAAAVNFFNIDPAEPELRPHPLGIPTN

CC(C)CN(C[C@@H](O)[C@H](Cc1ccccc1)NC(=O)O[C@H]1CCOC1)S(=O)(=O)c1ccc(N)cc1
Not Active: IC50 [1] | IC50 [2] | IC50 [3] | IC50 [4] | IC50 [5] | IC50 [6] | IC50 (Estrogen receptor beta)

c1ccc(Nc2ccc(Nc3ccccc3)cc2)cc1
Not Active: IC50 [1] | IC50 [2] | IC50 [3] | IC50 [4] | IC50 [5] | IC50 [6] | IC50 (Estrogen receptor beta)

COc1cc2c3cc1Oc1cc(ccc1O)C[C@@H]1c4c(cc(OC)c(O)c4Oc4ccc(cc4)C[C@@H]3N(C)CC2)CC[N+]1(C)C.[Cl-]
Not Active: IC50 [1] | IC50 [2] | IC50 [3] | IC50 [4] | IC50 [5] | IC50 [6] | IC50 (Estrogen receptor beta)

NC(=O)N1c2ccccc2CCc2ccccc21
Not Active: IC50 [1] | IC50 [2] | IC50 [3] | IC50 [4] | IC50 [5] | IC50 [6] | IC50 (Estrogen receptor beta)

O=C1CC[C@@H](N2C(=O)c3ccccc3C2=O)C(=O)N1
Not Active: IC50 [1] | IC50 [2] | IC50 [3] | IC50 [4] | IC50 [5] | IC50 [6] | IC50 (Estrogen receptor beta)

Cc1onc(O)c1CC(N)C(=O)O (racemic) [(R,S)-AMPA]
Not Active: IC50 [1] | IC50 [2] | IC50 [3] | IC50 [4] | IC50 [5] | IC50 [6] | IC50 (Estrogen receptor beta)

Cc1ccc2cc3c(ccc4ccccc43)c3c2c1CC3 [3-METHYLCHOLANTHRENE]
Not Active: IC50 [1] | IC50 [2] | IC50 [3] | IC50 [4] | IC50 [5] | IC50 [6] | IC50 (Estrogen receptor beta)

CC[C@@]1(O)C[C@H](O[C@H]2C[C@H](N(C)C)[C@H](O[C@H]3C[C@H](O)[C@H](O[C@H]4CCC(=O)[C@H](C)O4)[C@H](C)O3)[C@H](C)O2)c2c(cc3c(c2O)C(=O)c2c(O)cccc2C3=O)[C@H]1C(=O)OC [ACLARUBICIN]
Not Active: IC50 [1] | IC50 [2] | IC50 [3] | IC50 [4] | IC50 [5] | IC50 [6] | IC50 (Estrogen receptor beta)

Cc1c(C)c2c(c(C)c1O)CC[C@@](C)(CCC[C@H](C)CCC[C@H](C)CCCC(C)C)O2 [ALPHA-TOCOPHEROL]
Not Active: IC50 [1] | IC50 [2] | IC50 [3] | IC50 [4] | IC50 [5] | IC50 [6] | IC50 (Estrogen receptor beta)

CN(C)c1nc(N(C)C)nc(N(C)C)n1 [ALTRETAMINE]
Not Active: IC50 [1] | IC50 [2] | IC50 [3] | IC50 [4] | IC50 [5] | IC50 [6] | IC50 (Estrogen receptor beta)

Nc1c(Br)cc(Br)cc1CN[C@H]1CC[C@H](O)CC1 [AMBROXOL]
Not Active: IC50 [1] | IC50 [2] | IC50 [3] | IC50 [4] | IC50 [5] | IC50 [6] | IC50 (Estrogen receptor beta)

Cc1ccc(/N=C/N(C)/C=N/c2ccc(C)cc2C)c(C)c1 [AMITRAZ]
Not Active: IC50 [1] | IC50 [2] | IC50 [3] | IC50 [4] | IC50 [5] | IC50 [6] | IC50 (Estrogen receptor beta)

CCOC(=O)C1=C(COCCN)NC(C)=C(C(=O)OC)C1c1ccccc1Cl (configuration not stated) [AMLODIPINE]
Not Active: IC50 [2] | IC50 [4] | IC50 [5] | IC50 [6] | IC50 (Estrogen receptor beta)

COc1ccc(C[C@H]2NC[C@H](O)[C@H]2OC(C)=O)cc1 [ANISOMYCIN]
Not Active: IC50 [1] | Ki [1] | IC50 [2] | Ki [2] | IC50 [3] | Ki [3] | IC50 [4] | Ki [4] | IC50 [5] | Ki [5] | IC50 [6] | Ki [6] | IC50 (Estrogen receptor beta) | Ki (Estrogen receptor beta)

CN(C)C(=O)Oc1cc(OC(=O)N(C)C)cc(C(O)CNC(C)(C)C)c1 (configuration not stated) [BAMBUTEROL]
Not Active: IC50 [1] | IC50 [2] | IC50 [3] | IC50 [4] | IC50 [5] | IC50 [6] | IC50 (Estrogen receptor beta)

c1ccc2c(c1)c1cccc3ccc4cccc2c4c31 [BENZO[E]PYRENE]
Not Active: IC50 [1] | IC50 [2] | IC50 [3] | IC50 [4] | IC50 [5] | IC50 [6] | IC50 (Estrogen receptor beta)

CC(C)C(Br)C(=O)NC(N)=O (configuration not stated) [BROMISOVALUM]
Not Active: IC50 [1] | IC50 [2] | IC50 [3] | IC50 [4] | IC50 [5] | IC50 [6] | IC50 (Estrogen receptor beta)

CCCC1O[C@@H]2C[C@H]3[C@@H]4CCC5=CC(=O)C=C[C@]5(C)[C@H]4[C@@H](O)C[C@]3(C)[C@]2(C(=O)CO)O1 (some centres not stated) [BUDESONIDE]
Not Active: IC50 [1] | IC50 [2] | IC50 [3] | IC50 [4] | IC50 [5] | IC50 [6] | IC50 (Estrogen receptor beta)

CC(NC(C)(C)C)C(=O)c1cccc(Cl)c1 (configuration not stated) [BUPROPION]
Not Active: IC50 [1] | IC50 [2] | IC50 [3] | IC50 [4] | IC50 [5] | IC50 [6] | IC50 (Estrogen receptor beta)

CN(Cc1ccc(C(C)(C)C)cc1)Cc1cccc2ccccc12 [BUTENAFINE]
Not Active: IC50 [1] | IC50 [2] | IC50 [3] | IC50 [4] | IC50 [5] | IC50 [6] | IC50 (Estrogen receptor beta)

CN(C)CCCN1c2ccccc2Sc2ccc(Cl)cc21 [CHLORPROMAZINE]
Not Active: IC50 [2] | IC50 [4] | IC50 [5] | IC50 [6] | IC50 (Estrogen receptor beta)

CC(C)(C)NCC(O)c1cc(Cl)c(N)c(Cl)c1 (configuration not stated) [CLENBUTEROL]
Not Active: IC50 [1] | IC50 [3] | IC50 [4] | IC50 [5] | IC50 [6] | IC50 (Estrogen receptor beta)

COc1cc2nc(N3CCN(C(=O)C4COc5ccccc5O4)CC3)nc(N)c2cc1OC (configuration not stated) [DOXAZOSIN]
Not Active: IC50 [1] | IC50 [3] | IC50 [4] | IC50 [5] | IC50 [6] | IC50 (Estrogen receptor beta)

C[C@](N)(Cc1ccc(O)c(O)c1)C(=O)O [METHYLDOPA]
Not Active: IC50 [1] | IC50 [2] | IC50 [3] | IC50 [4] | IC50 [5] | IC50 [6]

C[C@]12CCC(=O)C=C1CC[C@@H]1[C@@H]2CC[C@@]2(C)[C@H]1CC[C@]2(C)O [METHYLTESTOSTERONE]
Not Active: IC50 [1] | IC50 [2] | IC50 [3] | IC50 [4] | IC50 [5] | IC50 [6]

COCCc1ccc(OCC(O)CNC(C)C)cc1 (configuration not stated) [METOPROLOL]
Not Active: IC50 [1] | IC50 [3] | IC50 [4] | IC50 [5] | IC50 [6] | IC50 (Estrogen receptor beta)

Cc1ccc(N(CC2=NCCN2)c2cccc(O)c2)cc1 [PHENTOLAMINE]
Not Active: IC50 [2] | IC50 [3] | IC50 [4] | IC50 [5] | IC50 [6] | IC50 (Estrogen receptor beta)

CC(O)CO (configuration not stated) [PROPYLENE GLYCOL]
Not Active: IC50 [1] | IC50 [2] | IC50 [3] | IC50 [4] | IC50 [5] | IC50 [6]
